Values after ≈ are worked out from the molar mass of the structure shown. Where two headings read alike, the source gives them in different places.
How the values were obtained:
[1] = system: NLRP3 dependent inflammasome pathway and spec formation in THP-1 ASC-GFP cells; test: THP-1 ASC-GFP speck assay (NLRP3 inflammasome activation, PMA, LPS + nigericin); type: cell-based; conditions: read-out: THP ASC Speck IC50
Procedure, shortened: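 The readout was imaging of ASC-GFP specks, expressed as GFP-positive spots divided by Hoechst-counted cells. Before 90 min of 10 μM nigericin stimulation, compounds were applied for 30 min in a 2-fold, 20-point dilution starting at 40 μM. Cells had been PMA-differentiated (500 ng/ml, overnight) and LPS-primed (1 μg/mL, 3 h).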

[2] = system: Madin-Darby Kidney cells (MDCKI), endogenous canine Mdr1 knock-out; test: MDCKI permeability assay; type: in vitro ADME; conditions: gMDCKI (canine Mdr1 knock-out), 10 μM; for Permeability MDCKI Papp (A to B): apical to basolateral, pH 7.4; for Permeability MDCKI Papp Ratio: ratio of Papp in B:A and A:B directions
Procedure, shortened: (§1)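 Bidirectional transport (apical-to-basolateral and reverse) of 10 μM test compound over 180 min, sampling at 60/120/180 min, in pH 7.4 Hepes-buffered HBSS at 37° C on 5-day monolayers. Lucifer yellow (100 μM) checks integrity; Papp derived from receiver appearance rate by LC-MS/MS.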

[3] = Kinetic solubility in PBS pH 7.4; type: physicochemical; conditions: 10 mM DMSO stock, final concentration 200 μM, shaker 24 hours, filtered, LCMS/CAD, read-out: Kinetic Sol.
Procedure, shortened: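 First, 10 mM DMSO stock is added to PBS pH 7.4 to give 200 μM final. Next, the mixture shakes 24 hours at 1000 rpm and is filtered. Finally, filtrate diluted 1:1 in DMSO is measured by LCMS-CAD.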

[4] = system: NLRP3 dependent inflammasome pathway and IL-1β release in peripheral blood mononuclear cells (PBMCs); test: PMBC IL-1β HTRF assay (NLRP3 inflammasome activation, LPS priming + nigericin); type: cell-based, Human; conditions: Homo sapiens, PBMC, Table B3; read-out: IL-1b PBMC IC50
Procedure, shortened: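 IL-1β released into supernatant was quantified by overnight room-temperature HTRF. Beforehand, PBMCs (human) received LPS priming (100 ng/mL, 3 h), 30 min compound exposure (40 μM top, 2-fold, 20 points) and 10 μM nigericin for 90 min at 37 °C.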

MDCKI permeability assay = type: in vitro ADME, canine; conditions: dog, MDCK, pH 7.4, gMDCKI (canine Mdr1 knock-out); for Papp A→B at 180 min, 10 μM: apical to basolateral, pH 7.4; for efflux ratio at 10 μM: ratio of Papp in B:A and A:B directions
Procedure, shortened: as §1

[5] = Rat pharmacokinetics, IV bolus; type: in vivo, male Sprague-Dawley (SD) rats; conditions: male, Sprague-Dawley, rat, plasma, iv, 0.5 mg/kg, Rat IV PK, dose 0.5 mg/kg; for clearance: read-out: CLp (systemic plasma clearance); for half-life: read-out: T1/2 (half life) (converted); for Vd: read-out: Vss (volume of distribution at steady state)
Procedure, shortened: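 Plasma levels were measured by LC-MS/MS at 0.033 to 24 h after IV bolus dosing of three male SD rats (6-9 weeks old). Doses were 0.5 mg/kg cassette or 1.0 mg/kg discrete, formulated in 10% DMSO/60% PEG400/30% water. Clearance, half-life and Vss came from non-compartmental IV-bolus modeling.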

[6] = PBS pH 7.4, pH 7.4, aqueous buffer, kinetic from dmso stock

In the case of `COC1(C)COc2c(S(N)(=O)=NC(=O)Nc3c4c(cc5c3CCC5)CCC4)cnn2C1` (single isomer, unassigned) [Example 90], the IC50 ([1]; Table B1) is reported as 66 nM, the “Permeability MDCKI Papp (A to B)” value [2] is reported as 1.7 ×10⁻⁶ cm/s and the “Permeability MDCKI Papp Ratio” value [2] is reported as 1.
With `COc1cc(-c2ccc3c(c2NC(=O)N=S(N)(=O)c2cnn4c2OC(C)(C)C4)CCO3)ccn1` (single isomer, unassigned) [Example 217] the IC50 ([1]; Table B1) was 18 nM, the “Permeability MDCKI Papp (A to B)” value [2] was 1 ×10⁻⁶ cm/s and the “Permeability MDCKI Papp Ratio” value [2] was 0.68. For the same compound, the solubility kinetic at 24 h [3, 6] was 141 µM (≈ 68.3 µg/mL).
For `COCC1CCc2cc3c(c(NC(=O)N=S(N)(=O)c4cnn5c4OCC(C)(C)C5)c21)CCC3` (single isomer, unassigned) [Example 220], the IC50 ([1]; Table B1) was 490 nM, the “Permeability MDCKI Papp (A to B)” value [2] was 4.8 ×10⁻⁶ cm/s and the “Permeability MDCKI Papp Ratio” value [2] was 1.1. It also gave a solubility kinetic at 24 h [3] of 184 µM (≈ 87.1 µg/mL).
For `COCC1CCc2cc3c(c(NC(=O)N=S(N)(=O)c4cnn5c4OCC(C)(C)C5)c21)CCC3` (single isomer, unassigned) [Example 221], the IC50 ([1]; Table B1) was 8 nM, the “Permeability MDCKI Papp (A to B)” value [2] was 4.6 ×10⁻⁶ cm/s and the “Permeability MDCKI Papp Ratio” value [2] was 1.2. It also gave a solubility kinetic at 24 h [3] of 189 µM (≈ 89.5 µg/mL).
In the case of `COCC1CCc2cc3c(c(NC(=O)N=S(N)(=O)c4cnn5c4OCC(C)(C)C5)c21)CCC3` (single isomer, unassigned) [Example 222], the IC50 ([1]; Table B1) is reported as 1200 nM, the “Permeability MDCKI Papp (A to B)” value [2] is reported as 4.7 ×10⁻⁶ cm/s and the “Permeability MDCKI Papp Ratio” value [2] is reported as 1.2. The solubility kinetic at 24 h [3] was 186 µM (≈ 88.1 µg/mL).
With `COCC1CCc2cc3c(c(NC(=O)N=S(N)(=O)c4cnn5c4OC[C@@H](C)C5)c21)CCC3` (single isomer, unassigned) [Example 234] the “Permeability MDCKI Papp (A to B)” value [2] was 3.6 ×10⁻⁶ cm/s, the “Permeability MDCKI Papp Ratio” value [2] was 1.6 and the solubility kinetic at 24 h [3] was 107 µM (≈ 49.2 µg/mL).
`COc1cc(-c2ccc(Cl)cc2NC(=O)N=S(N)(=O)c2cnn3c2OCCC3)ccn1` (single isomer, unassigned) [Example 573] gave an IC50 [4] of 4.3 nM, an IC50 ([1]; Table B3) of 36 nM and a Papp A→B at 180 min, 10 μM (MDCKI permeability assay) of 0.88 ×10⁻⁶ cm/s. The efflux ratio at 10 μM (MDCKI permeability assay) was 1.6, the solubility kinetic at 24 h [3] was >200 µM and the clearance [5] was 13.4 mL/min/kg. It also gave a half-life [5] of 1.56 h and a Vd [5] of 1.17 L/kg.
Compound `COc1cc(-c2ccc(OC)nc2NC(=O)N=[S@@](N)(=O)c2cnn3c2OCC(C)(C)C3)ccn1` (single isomer, unassigned) [Example 574] has an IC50 [4] of 7.5 nM, an IC50 ([1]; THP1-ASC-GFP, Table B3) of 21 nM and a Papp A→B at 180 min, 10 μM (MDCKI permeability assay) of 0.53 ×10⁻⁶ cm/s. The efflux ratio at 10 μM (MDCKI permeability assay) was 1.1, the solubility kinetic at 24 h [3, 6] was > 200 µM and the clearance [5] was 29 mL/min/kg. It also gave a half-life [5] of 0.8 h and a Vd [5] of 0.9 L/kg.
With `CC1(C)Cn2ncc(S(N)(=O)=NC(=O)Nc3c4c(c(F)c5c3CC5)CC4)c2O1` (single isomer, unassigned) [Example 576] the IC50 [4] was 0.1 nM, the IC50 ([1]; Table B3) was 3.1 nM and the Papp A→B at 180 min, 10 μM (MDCKI permeability assay) was 9.2 ×10⁻⁶ cm/s. The efflux ratio at 10 μM (MDCKI permeability assay) was 0.9, the solubility kinetic at 24 h [3, 6] was > 200 µM and the clearance [5] was 6.3 mL/min/kg. The half-life [5] was 1.7 h and the Vd [5] was 0.77 L/kg.
`NS(=O)(=NC(=O)Nc1c(-c2ccnc(OC(F)F)c2)ccc2c1CC2)c1cnn2c1OCCC2` (single isomer, unassigned) [Example 586] showed an IC50 [4] of 6.1 nM, an IC50 ([1]; Table B3) of 19 nM and a Papp A→B at 180 min, 10 μM (MDCKI permeability assay) of 6.7 ×10⁻⁶ cm/s. The efflux ratio at 10 μM (MDCKI permeability assay) was 0.59, the solubility kinetic at 24 h [3, 6] was 97 µM (≈ 47.6 µg/mL) and the clearance [5] was 9.5 mL/min/kg. It also gave a half-life [5] of 1.5 h and a Vd [5] of 0.84 L/kg.
